Test results: US9181234B2, “Antibacterial compounds” (priority 2010, dated 2015)
Values after ≈ are worked out from the molar mass of the structure shown.

Experiments:
physchem = details: kinetic from dmso stock
Summary of the method: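 DMSO doubling dilutions were diluted twenty-fold into 100 mM citrate (pH 4), PBS (pH 7.4) or carbonate-bicarbonate (pH 9). After 24 h equilibration at room temperature, absorbance was read at 620 nm. The reported value is the highest concentration without measurable precipitate.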

[1] = test system: Staphylococcus aureus (Isolate ID ATCC 29213); test: Antibacterial activity, MIC, S. aureus; format: cell-based; details: Staphylococcus aureus, ATCC29213, Gram positive strain; broth microdilution or agar dilution
Summary of the method: (§1)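 CLSI-guided dilution susceptibility testing (broth or agar) gave the MIC for each strain.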

[2] = test system: Enterococcus faecalis (Isolate ID ATCC 29212); test: Antibacterial activity, MIC, E. faecalis; format: cell-based; details: Enterococcus faecalis, ATCC29212; Gram positive strain; broth microdilution or agar dilution
Experimental: Bacterial Assay: Determination of Antibacterial Activity
Compounds of the invention were tested for antimicrobial activity by susceptibility testing in liquid or on solid media. MICs for compounds against each strain were determined by the broth microdilution or agar dilution method according to the guidelines of the Clinical Laboratories and Standards Institute, formerly the National Committee for Clinical Laboratory Standards (Clinical Laboratories and Standards Institute. Methods for Dilution Antimicrobial Susceptibility Tests for Bacteria That Grow Aerobically; Approved Standard—Seventh Edition. Document M7-A7. CLSI, Wayne, Pa., 2006; Clinical Laboratories and Standards Institute. The gram positive bacterial strains tested include S. aureus (Staphylococcus aureus (Isolate ID ATCC 29213)), E. faecalis (Enterococcus faecalis (Isolate ID ATCC 29212)) and S. pyogenes (Streptococcus pyogenes (Isolate ID ATCC 51339)). The gram negative bacterial strains tested include H. influenzae (Haemophilus influenzae (Isolate ID ATCC 49247))

[3] = test system: Streptococcus pyogenes (Isolate ID ATCC 51339); test: Antibacterial activity, MIC, S. pyogenes; format: cell-based; details: Streptococcus pyogenes, ATCC51339, Gram positive strain; broth microdilution or agar dilution
Summary of the method: as §1

[4] = test system: Haemophilus influenzae (Isolate ID ATCC 49247); test: Antibacterial activity, MIC, H. influenzae; format: cell-based; details: Haemophilus influenzae, ATCC49247; Gram negative strain; broth microdilution or agar dilution
Summary of the method: as §1

[5] = pH 7.4, aqueous buffer, Max Solubility
[6] = pH 7.4, aqueous buffer, Solubility (pH 7.4)
[7] = pH 7.4, aqueous buffer, Solubility Range
[8] = pH 7.4, aqueous buffer, Solubility Range (maximum solubility)
[9] = pH 9, aqueous buffer, Max Solubility
[10] = pH 9, aqueous buffer, Solubility Range (maximum solubility)

Structure (SMILES) | solubility at 24 h (physchem; [5]) [µg/mL] | solubility at 24 h (physchem; [6]) [µg/mL] | solubility at 24 h (physchem; [7]) [µg/mL] | solubility at 24 h (physchem; [8]) [µg/mL] | MIC [1] [µg/mL] | MIC [2] [µg/mL] | MIC [3] [µg/mL] | MIC [4] [µg/mL] | solubility at 24 h (physchem; [9]) [µg/mL] | solubility at 24 h (physchem; [10]) [µg/mL]
CCNC(=O)Nc1nc2cc(-c3cnc(N4CCC(C)(C(=O)O)CC4)nc3)cc(-c3ccc(C)cn3)c2s1 [Compound 31] | ≥ 800 | ≥ 800 | > 800 | > 800 | ≤ 0.25 | ≤ 0.25 | ≤ 0.25 | 0.25 to 1 (≈ 0.47 to 1.88 µM) | – | –
CCNC(=O)Nc1nc2cc(-c3cnc(N4CCC(C)(C(=O)O)CC4)nc3)cc(-c3cccc(C#N)n3)c2s1 [Compound 32] | 400 (≈ 737 µM) | 400 (≈ 737 µM) | 400 to 800 (≈ 737 to 1470 µM) | 400 to 800 (≈ 737 to 1470 µM) | ≤ 0.25 | ≤ 0.25 | ≤ 0.25 | 1 to 16 (≈ 1.84 to 29.5 µM) | – | –
CCNC(=O)Nc1nc2cc(-c3cnc(N4CCC(C)(C(=O)O)CC4)nc3)cc(-n3ccnc3)c2s1 [Compound 33] | – | 200 (≈ 395 µM) | 12.5 to 400 (≈ 24.7 to 790 µM) | – | > 16 | 1 to 16 (≈ 1.97 to 31.6 µM) | 1 to 16 (≈ 1.97 to 31.6 µM) | > 16 | ≥ 800 | > 800
CCNC(=O)Nc1nc2cc(-c3cnc(N4CCC(C)(C(=O)O)CC4)nc3)cc(-c3ncc(F)cn3)c2s1 [Compound 34] | – | 50 (≈ 93.2 µM) | 12.5 to 400 (≈ 23.3 to 745 µM) | – | ≤ 0.25 | ≤ 0.25 | ≤ 0.25 | 1 to 16 (≈ 1.86 to 29.8 µM) | 100 (≈ 186 µM) | 12.5 to 400 (≈ 23.3 to 745 µM)
CCNC(=O)Nc1nc2cc(-c3cnc(N4CCC(C)(C(=O)O)CC4)c(F)c3)cc(-c3ccccn3)c2s1 [Compound 36] | – | 50 (≈ 93.5 µM) | 12.5 to 400 (≈ 23.4 to 748 µM) | – | ≤ 0.25 | ≤ 0.25 | ≤ 0.25 | 1 to 16 (≈ 1.87 to 29.9 µM) | 400 (≈ 748 µM) | 400 to 800 (≈ 748 to 1500 µM)
CCNC(=O)Nc1nc2cc(-c3cnc(N4CCC(C)(C(=O)O)CC4)nc3)cc(C)c2s1 [Compound 38, 1-{5-[2-(3-Ethyl-ureido)-7-methyl-benzothiazol-5-yl]-pyrimidin-2-yl}-4-methyl-piperidine-4-carboxylic acid] | ≥ 800 | ≥ 800 | > 800 | > 800 | 0.25 to 1 (≈ 0.55 to 2.2 µM) | ≤ 0.25 | 0.25 to 1 (≈ 0.55 to 2.2 µM) | > 16 | – | –
CCNC(=O)Nc1nc2cc(-c3cnc(N4CCC(C)(C(=O)O)CC4)cn3)cc(-c3ccccn3)c2s1 [Compound 40] | ≥ 800 | ≥ 800 | > 800 | > 800 | 0.25 to 1 (≈ 0.483 to 1.93 µM) | ≤ 0.25 | ≤ 0.25 | 1 to 16 (≈ 1.93 to 30.9 µM) | – | –
CCNC(=O)Nc1nc2cc(-c3cnc(N4CCC(C)(C(=O)O)CC4)nc3)cc(-c3cn(-c4ccccc4)nn3)c2s1 [Compound 41, 1-[5-[2-(ethylcarbamoylamino)-7-(1-phenyltriazol-4-yl)-1,3-benzothiazol-5-yl]pyrimidin-2-yl]-4-methyl-piperidine-4-carboxylic acid] | ≥ 800 | ≥ 800 | > 800 | > 800 | ≤ 0.25 | ≤ 0.25 | ≤ 0.25 | 1 to 16 (≈ 1.71 to 27.4 µM) | – | –
CCNC(=O)Nc1nc2cc(-c3cnc(N4CCC(C)(C(=O)O)CC4)nc3)cc(-c3ccnc(OC)n3)c2s1 [Compound 42] | – | 25 (≈ 45.6 µM) | 12.5 to 400 (≈ 22.8 to 729 µM) | – | 0.25 to 1 (≈ 0.456 to 1.82 µM) | ≤ 0.25 | ≤ 0.25 | 1 to 16 (≈ 1.82 to 29.2 µM) | 100 (≈ 182 µM) | 12.5 to 400 (≈ 22.8 to 729 µM)
CCNC(=O)Nc1nc2cc(-c3cnc(N4CCC(C)(C(=O)O)CC4)nc3)cc(-c3ccnc(C)n3)c2s1 [Compound 43] | – | 400 (≈ 751 µM) | 400 to 800 (≈ 751 to 1500 µM) | – | ≤ 0.25 | ≤ 0.25 | ≤ 0.25 | 0.25 to 1 (≈ 0.469 to 1.88 µM) | ≥ 800 | > 800
CCNC(=O)Nc1nc2cc(-c3cnc(N4CCC(C)(C(=O)O)CC4)nc3)cc(-c3ccnc(C#N)n3)c2s1 [Compound 44] | ≥ 800 | ≥ 800 | > 800 | > 800 | 1 to 16 (≈ 1.84 to 29.4 µM) | ≤ 0.25 | ≤ 0.25 | > 16 | – | –
CCNC(=O)Nc1nc2cc(-c3cnc(N4CCC(C)(C(=O)O)CC4)nc3)cc(-c3cc(C)ncn3)c2s1 [Compound 45] | ≥ 800 | ≥ 800 | > 800 | > 800 | ≤ 0.25 | ≤ 0.25 | ≤ 0.25 | 0.25 to 1 (≈ 0.469 to 1.88 µM) | – | –
CCNC(=O)Nc1nc2cc(-c3cnc(N4CCC(C)(C(=O)O)CC4)nc3)ccc2s1 [Compound 46, 1-{5-[2-(3-Ethyl-ureido)-benzothiazol-5-yl]-pyrimidin-2-yl}-4-methyl-piperidine-4-carboxylic acid] | – | 100 (≈ 227 µM) | 12.5 to 400 (≈ 28.4 to 908 µM) | – | 1 to 16 (≈ 2.27 to 36.3 µM) | 0.25 to 1 (≈ 0.567 to 2.27 µM) | 1 to 16 (≈ 2.27 to 36.3 µM) | > 16 | 400 (≈ 908 µM) | 400 to 800 (≈ 908 to 1820 µM)
CCNC(=O)Nc1nc2cc(-c3cnc(N4CCC(C)(C(=O)O)CC4)nc3)cc(C3CCOCC3)c2s1 [Compound 47, 1-[5-[2-(ethylcarbamoylamino)-7-tetrahydropyran-4-yl-1,3-benzothiazol-5-yl]pyrimidin-2-yl]-4-methyl-piperidine-4-carboxylic acid] | ≥ 800 | ≥ 800 | > 800 | > 800 | 1 to 16 (≈ 1.91 to 30.5 µM) | 0.25 to 1 (≈ 0.477 to 1.91 µM) | 1 to 16 (≈ 1.91 to 30.5 µM) | > 16 | – | –
CCNC(=O)Nc1nc2cc(-c3cnc(N4CCC(C)(C(=O)O)CC4)nc3)cc(-c3cc(OC(C)C)ncn3)c2s1 [Compound 48] | – | 400 (≈ 694 µM) | 400 to 800 (≈ 694 to 1390 µM) | – | ≤ 0.25 | ≤ 0.25 | ≤ 0.25 | 1 to 16 (≈ 1.73 to 27.7 µM) | ≥ 800 | > 800
